The compounds below were run on 843126-344-R-J1-PDC complex spheroid viability (assay: Anticancer human tumor 843126-344-R-J1-PDC patient-derived melanoma cell line growth inhibition [POLQ]). Settings: second compound 0.316 µM; first compound 0.316 µM; active compounds read low.
Method in brief: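 Patient-derived tumour cells were co-cultured with HUVEC and mesenchymal stem cells as multicellular spheroids at 37 °C. They were treated with POLQ inhibitors (novobiocin, ART-558, RP6685) alone or combined with other agents. Top concentrations were at or near clinical Cmax (otherwise 10 microM; SN-38 at 1 microM), decreasing in half-log steps.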
`COc1cc2cc(C(=O)CCC(=O)O)sc2cc1OC` + Nc1ccc(C#CCN(C(=O)Cc2ncc(C(F)(F)F)cc2C(F)(F)F)c2ccc(F)cc2)nn1 showed a viability, T/C of 104%.
Compound `CC1COCCN1c1cc(-c2ccnn2C)c2ccnc(-c3ccn[nH]3)c2n1` (stereo unspecified) + Nc1ccc(C#CCN(C(=O)Cc2ncc(C(F)(F)F)cc2C(F)(F)F)c2ccc(F)cc2)nn1 has a viability, T/C of 63.9%.

Same assay, conditions: second compound 0.316 µM; first compound 1 µM; active compounds read low
Work on `CC1COCCN1c1cc(C2(S(C)(=N)=O)CC2)nc(-c2ccnc3[nH]ccc23)n1` (stereo unspecified) + Cc1cccc(N(C)C(=O)C2C(O)CCN2c2nc(C)cc(C(F)(F)F)c2C#N)c1 yielded a viability, T/C of 80.3%.
Compound `C=CCn1c(=O)c2cnc(Nc3ccc(N4CCN(C)CC4)cc3)nc2n1-c1cccc(C(C)(C)O)n1` + Cc1cccc(N(C)C(=O)C2C(O)CCN2c2nc(C)cc(C(F)(F)F)c2C#N)c1 has a viability, T/C of 73.7%.
With `CNCc1ccc(-c2[nH]c3cc(F)cc4c3c2CCNC4=O)cc1` + COC1C(OC(N)=O)C(O)C(Oc2ccc3c(O)c(NC(=O)c4ccc(O)c(CC=C(C)C)c4)c(=O)oc3c2C)OC1(C)C the viability, T/C was 96.1%.
Work on `C=CC(=O)N1CCN(c2nc(=O)n(-c3c(C)ccnc3C(C)C)c3nc(-c4c(O)cccc4F)c(F)cc23)C(C)C1` (stereo unspecified) + Cc1cccc(N(C)C(=O)C2C(O)CCN2c2nc(C)cc(C(F)(F)F)c2C#N)c1 yielded a viability, T/C of 107%.
Compound `CC(C)n1c(=O)n(C)c2cnc3cc(F)c(-c4ccc(OCCCN5CCCCC5)nc4)cc3c21` + Cc1cccc(N(C)C(=O)C2C(O)CCN2c2nc(C)cc(C(F)(F)F)c2C#N)c1 has a viability, T/C of 89.8%.
`COc1cc2cc(C(=O)CCC(=O)O)sc2cc1OC` + Nc1ccc(C#CCN(C(=O)Cc2ncc(C(F)(F)F)cc2C(F)(F)F)c2ccc(F)cc2)nn1 gave a viability, T/C of 96.7%.
Compound `CC1COCCN1c1cc(-c2ccnn2C)c2ccnc(-c3ccn[nH]3)c2n1` (stereo unspecified) + Nc1ccc(C#CCN(C(=O)Cc2ncc(C(F)(F)F)cc2C(F)(F)F)c2ccc(F)cc2)nn1 has a viability, T/C of 46.6%.

Same assay, conditions: second compound 0.316 µM; first compound 3.16 µM; active compounds read low
Work on `CC1COCCN1c1cc(C2(S(C)(=N)=O)CC2)nc(-c2ccnc3[nH]ccc23)n1` (stereo unspecified) + Cc1cccc(N(C)C(=O)C2C(O)CCN2c2nc(C)cc(C(F)(F)F)c2C#N)c1 yielded a viability, T/C of 66.6%.
In the case of `CNCc1ccc(-c2[nH]c3cc(F)cc4c3c2CCNC4=O)cc1` + COC1C(OC(N)=O)C(O)C(Oc2ccc3c(O)c(NC(=O)c4ccc(O)c(CC=C(C)C)c4)c(=O)oc3c2C)OC1(C)C, the viability, T/C is reported as 108%.
`C=CC(=O)N1CCN(c2nc(=O)n(-c3c(C)ccnc3C(C)C)c3nc(-c4c(O)cccc4F)c(F)cc23)C(C)C1` (stereo unspecified) + Cc1cccc(N(C)C(=O)C2C(O)CCN2c2nc(C)cc(C(F)(F)F)c2C#N)c1 showed a viability, T/C of 84%.
Compound `CC(C)n1c(=O)n(C)c2cnc3cc(F)c(-c4ccc(OCCCN5CCCCC5)nc4)cc3c21` + Cc1cccc(N(C)C(=O)C2C(O)CCN2c2nc(C)cc(C(F)(F)F)c2C#N)c1 has a viability, T/C of 87.2%.
`COc1cc2cc(C(=O)CCC(=O)O)sc2cc1OC` + Nc1ccc(C#CCN(C(=O)Cc2ncc(C(F)(F)F)cc2C(F)(F)F)c2ccc(F)cc2)nn1 gave a viability, T/C of 108%.
`CC1COCCN1c1cc(-c2ccnn2C)c2ccnc(-c3ccn[nH]3)c2n1` (stereo unspecified) + Nc1ccc(C#CCN(C(=O)Cc2ncc(C(F)(F)F)cc2C(F)(F)F)c2ccc(F)cc2)nn1 showed a viability, T/C of 40.6%.

Same assay, conditions: second compound 0.316 µM; first compound 10 µM; active compounds read low
`CC1COCCN1c1cc(C2(S(C)(=N)=O)CC2)nc(-c2ccnc3[nH]ccc23)n1` (stereo unspecified) + Cc1cccc(N(C)C(=O)C2C(O)CCN2c2nc(C)cc(C(F)(F)F)c2C#N)c1 was tested, and the viability, T/C was 58.5%.
`CNCc1ccc(-c2[nH]c3cc(F)cc4c3c2CCNC4=O)cc1` + COC1C(OC(N)=O)C(O)C(Oc2ccc3c(O)c(NC(=O)c4ccc(O)c(CC=C(C)C)c4)c(=O)oc3c2C)OC1(C)C was tested, and the viability, T/C was 70.5%.
In the case of `C=CC(=O)N1CCN(c2nc(=O)n(-c3c(C)ccnc3C(C)C)c3nc(-c4c(O)cccc4F)c(F)cc23)C(C)C1` (stereo unspecified) + Cc1cccc(N(C)C(=O)C2C(O)CCN2c2nc(C)cc(C(F)(F)F)c2C#N)c1, the viability, T/C is reported as 69.9%.
For `CC(C)n1c(=O)n(C)c2cnc3cc(F)c(-c4ccc(OCCCN5CCCCC5)nc4)cc3c21` + Cc1cccc(N(C)C(=O)C2C(O)CCN2c2nc(C)cc(C(F)(F)F)c2C#N)c1, the viability, T/C was 55.1%.
With `COc1cc2cc(C(=O)CCC(=O)O)sc2cc1OC` + Nc1ccc(C#CCN(C(=O)Cc2ncc(C(F)(F)F)cc2C(F)(F)F)c2ccc(F)cc2)nn1 the viability, T/C was 82.3%.
Work on `CC1COCCN1c1cc(-c2ccnn2C)c2ccnc(-c3ccn[nH]3)c2n1` (stereo unspecified) + Nc1ccc(C#CCN(C(=O)Cc2ncc(C(F)(F)F)cc2C(F)(F)F)c2ccc(F)cc2)nn1 yielded a viability, T/C of 30.2%.

Same assay, conditions: second compound 1 µM; first compound 0.00316 µM; active compounds read low
Work on `C=CCn1c(=O)c2cnc(Nc3ccc(N4CCN(C)CC4)cc3)nc2n1-c1cccc(C(C)(C)O)n1` + Cc1cccc(N(C)C(=O)C2C(O)CCN2c2nc(C)cc(C(F)(F)F)c2C#N)c1 yielded a viability, T/C of 86%.

Same assay, conditions: second compound 1 µM; first compound 0.01 µM; active compounds read low
In the case of `C=CCn1c(=O)c2cnc(Nc3ccc(N4CCN(C)CC4)cc3)nc2n1-c1cccc(C(C)(C)O)n1` + Cc1cccc(N(C)C(=O)C2C(O)CCN2c2nc(C)cc(C(F)(F)F)c2C#N)c1, the viability, T/C is reported as 102%.

Same assay, conditions: second compound 1 µM; first compound 0.0316 µM; active compounds read low
`CC1COCCN1c1cc(C2(S(C)(=N)=O)CC2)nc(-c2ccnc3[nH]ccc23)n1` (stereo unspecified) + Cc1cccc(N(C)C(=O)C2C(O)CCN2c2nc(C)cc(C(F)(F)F)c2C#N)c1 was tested, and the viability, T/C was 94.1%.
In the case of `C=CCn1c(=O)c2cnc(Nc3ccc(N4CCN(C)CC4)cc3)nc2n1-c1cccc(C(C)(C)O)n1` + Cc1cccc(N(C)C(=O)C2C(O)CCN2c2nc(C)cc(C(F)(F)F)c2C#N)c1, the viability, T/C is reported as 111%.
For `CNCc1ccc(-c2[nH]c3cc(F)cc4c3c2CCNC4=O)cc1` + COC1C(OC(N)=O)C(O)C(Oc2ccc3c(O)c(NC(=O)c4ccc(O)c(CC=C(C)C)c4)c(=O)oc3c2C)OC1(C)C, the viability, T/C was 109%.
For `C=CC(=O)N1CCN(c2nc(=O)n(-c3c(C)ccnc3C(C)C)c3nc(-c4c(O)cccc4F)c(F)cc23)C(C)C1` (stereo unspecified) + Cc1cccc(N(C)C(=O)C2C(O)CCN2c2nc(C)cc(C(F)(F)F)c2C#N)c1, the viability, T/C was 89.7%.
Work on `CC(C)n1c(=O)n(C)c2cnc3cc(F)c(-c4ccc(OCCCN5CCCCC5)nc4)cc3c21` + Cc1cccc(N(C)C(=O)C2C(O)CCN2c2nc(C)cc(C(F)(F)F)c2C#N)c1 yielded a viability, T/C of 98.3%.
`COc1cc2cc(C(=O)CCC(=O)O)sc2cc1OC` + Nc1ccc(C#CCN(C(=O)Cc2ncc(C(F)(F)F)cc2C(F)(F)F)c2ccc(F)cc2)nn1 showed a viability, T/C of 96.7%.
In the case of `CC1COCCN1c1cc(-c2ccnn2C)c2ccnc(-c3ccn[nH]3)c2n1` (stereo unspecified) + Nc1ccc(C#CCN(C(=O)Cc2ncc(C(F)(F)F)cc2C(F)(F)F)c2ccc(F)cc2)nn1, the viability, T/C is reported as 84.6%.

Same assay, conditions: second compound 1 µM; first compound 0.1 µM; active compounds read low
In the case of `CC1COCCN1c1cc(C2(S(C)(=N)=O)CC2)nc(-c2ccnc3[nH]ccc23)n1` (stereo unspecified) + Cc1cccc(N(C)C(=O)C2C(O)CCN2c2nc(C)cc(C(F)(F)F)c2C#N)c1, the viability, T/C is reported as 86.7%.
With `C=CCn1c(=O)c2cnc(Nc3ccc(N4CCN(C)CC4)cc3)nc2n1-c1cccc(C(C)(C)O)n1` + Cc1cccc(N(C)C(=O)C2C(O)CCN2c2nc(C)cc(C(F)(F)F)c2C#N)c1 the viability, T/C was 99.5%.
`CNCc1ccc(-c2[nH]c3cc(F)cc4c3c2CCNC4=O)cc1` + COC1C(OC(N)=O)C(O)C(Oc2ccc3c(O)c(NC(=O)c4ccc(O)c(CC=C(C)C)c4)c(=O)oc3c2C)OC1(C)C was tested, and the viability, T/C was 98.6%.
For `C=CC(=O)N1CCN(c2nc(=O)n(-c3c(C)ccnc3C(C)C)c3nc(-c4c(O)cccc4F)c(F)cc23)C(C)C1` (stereo unspecified) + Cc1cccc(N(C)C(=O)C2C(O)CCN2c2nc(C)cc(C(F)(F)F)c2C#N)c1, the viability, T/C was 84.7%.
Compound `CC(C)n1c(=O)n(C)c2cnc3cc(F)c(-c4ccc(OCCCN5CCCCC5)nc4)cc3c21` + Cc1cccc(N(C)C(=O)C2C(O)CCN2c2nc(C)cc(C(F)(F)F)c2C#N)c1 has a viability, T/C of 78%.
With `COc1cc2cc(C(=O)CCC(=O)O)sc2cc1OC` + Nc1ccc(C#CCN(C(=O)Cc2ncc(C(F)(F)F)cc2C(F)(F)F)c2ccc(F)cc2)nn1 the viability, T/C was 77.7%.

Reference: PubChem BioAssay AID1963837 (Molecular Pharmacology Branch, DTP, NCI, 2024)
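Also: spheroids exposed to drugs for seven days before readout.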
